A word on the Cmax: it is the highest concentration seen after dosing. Broadly, the Tmax is the time from dosing to the highest level. As usually defined, the bioavailability is dose-corrected exposure relative to a reference, in per cent.

This note sets out measurements from patent US20100168112A1, “2-Substituted and 4-substituted aryl nitrone compounds” (RENOVIS, INC., priority 2004, published 2010).

Read-outs that look alike come from different tables or passages of the source.

A short description of data set [1]: DPPH free radical-scavenging/antioxidant assay. The conditions noted are these: 50 μM DPPH in 80% methanol; 24 h time point; read-out: EC50 (concentration at which a compound reduces by 50% the peak absorbance of DPPH at 520 nm). The class given is biochemical. How it is done: Nitrone compounds of the present invention were tested for their free-radical scavenging/antioxidant activity in an in vitro assay that is accepted by those skilled in the art as a model for conditions involving the generation of free radicals. The assay is based on a reaction between a free-radical donor, 2,2-diphenyl-1-picrylhydrazyl (DPPH), and a radical scavenger/antioxidant to be tested for free-radical scavenging activity. Upon donation of the free-radical electron to the purported radical scavenger, the peak visible absorbance of DPPH (515-520 nm) decreases so that optical density readings at this part of the visual spectrum reflect the progression of the following reaction:
where AH is a hypothetical radical scavenger/antioxidant. The assay is based on a protocol originally detailed in Brand-Williams, W. et al., 1995, Use of a Free Radical Method to Evaluate Antioxidant Activity, Lebensm. Wiss. Technol., 28:25-30, with further modifications described in L. R. Fukumoto and G. Mazza, 2000, Assessing Antioxidant and Prooxidant Activities of Phenolic Compounds, J. Agric. Food Chem., 48:3597-3604.
The antioxidant assay was performed using Perkin-Elmer 96-well, clear-bottom, black-wall plates (ordered from E & K Scientific Products) and a Tecan Safire absorbance plate reader. The positive controls were Trolox (6-hydroxy-2,5,7,8-tetramethylchromane-2-carboxylic acid, Sigma-Aldrich), BHA (2(3)-tert-butylhydroquinone monomethyl ether, Sigma-Aldrich), PBN (C-(phenyl)-N-(tert-butyl)nitrone, Sigma-Aldrich) and S-PBN (C-(2-sulfophenyl)-N-(tert-butyl)nitrone, sodium salt, prepared according to E. G. Janzen and R. V. Shetty, 1979, Tetrahedron Lett., 35: 3229-32), and the negative control (i.e., vehicle) was DMSO. In brief, 2 μL of 100× DMSO stock of the desired final concentration of each control or nitrone compound to be tested in the same batch was added to a separate well. To each well was then added 198 μL of a freshly made 50 μM DPPH (Sigma-Aldrich) solution in 80% methanol using a multi-channel pipette. The absorbance was immediately read on the plate reader at 520 nm and thereafter read periodically to assess kinetics until all reactions reached completion (i.e., steady state). Since the steady-state point was 24 h, the assay results are shown from the 24 h time point. The absorbance at 520 nm (OD) was plotted versus the concentrations of the controls and nitrone compounds to assess dose-response and interpolate the EC50 values of the controls and test compounds.

A short description of data set [2]: Microsomal stability in human liver microsomes. The class given is in vitro ADME. The conditions noted are these: NADPH, 37° C. How it is done: Frozen Sprague-Dawley rat liver microsomes (RLM) were thawed on ice and gently mixed before use. The final reaction mixture consisted of a nitrone compound of this invention (at ˜500 ng/ml), 1 mM NADPH, and 0.5 mg/ml of RLM protein in 0.1 M PBS (pH7.4), with organic solvent concentration not exceeding 1% (v/v). Per set of incubations, a positive control compound was included. The mixture was first pre-incubated 3 to 5 minutes at 37° C. without NADPH, and the reaction was then initialized by the addition of NADPH and incubated at 37° C. for up to 30 minutes. An aliquot of the reaction mixture was sampled at the initiation of the reaction and at designated time after reaction started. The drawn samples were quenched with acetonitrile, diluted with mobile phase to ensure the detection of test article in the linear range, and analyzed by LC/MS/MS. Half-life or percentage of remaining nitrone compound was calculated using standard methods. A similar method, or a slight variation of it, was used to test the stability of nitrones in human liver microsomes (HLM).
A general note: Microsomes from liver hold many membrane-bound enzymes, among them those of drug oxidation.

Data set [3] can be described thus: Solubility measurement at pH 7.4. The class given is physicochemical. As to conditions: aqueous buffer, thermodynamic from solid, phosphate buffer pH 7.4, room temperature. How it is done:
Nitrone compounds (>3 mg) of this invention were mixed with a phosphate buffer at pH 7.4 to make a >0.3 mg/mL mixture. The mixture was vortexed for more than 2 hours and equilibrated over 12 hours at room temperature. The equilibrated mixture was used to saturate a 0.45 μm Tuffryn syringe filter. After saturating, the remainder of the mixture was filtered through the saturated filter. The filtrate was diluted by 1, 10, 100, and 1000 fold and analyzed using a LC/MS/MS method with standard curve ranging from 1 to 1000 ng/mL.

Data set [4] in a line: Pharmacokinetic evaluation following intravenous and oral administration in rats. The class given is in vivo. As to conditions: male, Sprague-Dawley; for Cmax / Tmax / bioavailability: 5 mg/kg; for Cmax: rat plasma; for Cmax / Tmax: oral gavage, 2 mg/mL at 2.5 mL/kg; for clearance / Vd / Tmax / bioavailability / half-life: plasma, rat; for clearance / Vd / half-life: 1 mg/kg; for clearance / Vd: intravenous administration, 1 mg/mL at 1.0 mL/kg; for clearance: read-out: CI (clearance) (converted); for Vd: read-out: Vd (volume of distribution); for bioavailability: po 2 mg/mL at 2.5 mL/kg vs iv 1 mg/mL at 1.0 mL/kg, dose-normalized, read-out: F (%) oral bioavailability; for half-life: intravenous, read-out: T1/2 elimination half life (converted). As for the experimental part: Male Sprague-Dawley rats were given at least 24 hours acclimation before experiment initiation. During acclimation period, all animals received food and water ad libitum. However, food (not water) was removed from the animal's cages up to 12 hours before initiation of the experiment. During the first 4 hours of experimentation, the animals received only water ad libitum. Two to three animals for iv and three animals for oral administration were tested. For iv formulation nitrone compounds of this invention were dissolved (1 mg/mL) in a mixture of 5% dimethyl acetamide (v/v), 0 to 4% Tween 80 (v/v), 10 to 40% PEG 400 (v/v) and the rest percentage of water (v/v). For oral formulation nitrone compounds of this invention were dissolved (2 mg/mL) in a mixture of 4% of 10% Tween in water and 96% of 0.5% carboxymethyl cellulose (medium viscosity) in water; or 4% of 10% Tween in water, 48% of 0.5% carboxymethyl cellulose (medium viscosity) in water, and 48% of 0.5% Hydroxypropyl Methylcellulose/0.2% Sodium Lauryl Sulfate in water. These formulations were stored at 5° C. until the experiment. Formulations were then stir-mixed at least half an hour before dosing. Exactly 200 μL of each left-over formulation was diluted with CH3CN/H2O for concentration analysis. The animals were weighed before dosing. The body weight was used to calculate the true dose for each animal:
IV dosing: • Dose volume (mL)=1.0 mL/kg The intravenous dose was administered through the jugular vein catheter or tail vein in less than 1 minute.
PO dosing: • Dose volume (mL)=2.5 mL/kg The oral dose was administered by oral gavage.
For IV dosing, blood samples were collected (using a pre-heparinized syringe) via the carotid artery or jugular vein catheter at t=2, 5, 15, 30, 60, 120, 180, 360, and 480 minutes post dosing. For PO dosing, blood samples were collected (using a pre-heparinized syringe) via the carotid artery or jugular vein catheter before dosing and at t=5, 15, 30, 60, 120, 180, 360, and 480 minutes post dosing. For some nitrone compounds a 1440 minutes (24 hours) sample was also taken for both IV and PO administrations. About 250 μL of blood was obtained at each time point from the animals. Equal volumes of 0.9% normal saline were replaced to prevent dehydration. The whole blood samples were maintained on ice until centrifugation. Blood samples were then centrifuged at 14,000 rpm for 10 minutes at 4° C. and the upper plasma layer transferred into a clean vial and stored at −80° C. The resulting plasma samples were then analyzed by mass spectroscopy using standard methods.
All the samples from above assays were analyzed on a PE-Sciex API 3000 triple quadrupole with a Turbo Ion Spray source. Nitrone compounds of this invention were separated from the matrix via a linear gradient reverse-phase chromatography using a C18 column, such as Thermo BDS Hypersil C18 (100×4.6 mm, 5 micron particle, 120A pore size). The mobile Phases were:
Nitrone compounds were detected by the mass spectrometer in the positive ion multiple reaction monitoring mode (MRM). For quantitative analysis, a standard curve was prepared by spiking a stock solution of the nitrone compound to the appropriate matrix to achieve a quantitation curve range and analyzed the standards in the same manner as the samples.
Pharmacokinetic parameters of the aryl nitrone compounds were determined by a noncompartmental analysis using WinNonlin-Pro (Version 4.1, Pharsight Corporation). Average and standard deviation of the parameters were calculated using standard formulas in Microsoft Excel.

Where [5] appears, read: read-out: Solubility @ pH 7.4 (μg/mL).

For `O=S(=O)(c1ccccc1/C=[N+](\[O-])Cc1ccccc1)N1CCOCC1` [Compound 37], in data set [1], the EC50 lay in the range of 100 to 500 µM. Further, the “% of Nitrone Remaining at 30 min (Human)” value in data set [2] is 65.4%. The solubility in data set [3] (read-out: Solubility @ pH 7.4) is 5020 µM; in data set [3] (setting [5]), 1810 µg/mL.
Turning to `CN(c1ccccc1)S(=O)(=O)c1ccccc1/C=[N+](\[O-])C(C)(C)C` [Compound 41], in data set [1], the EC50 was more than 1000 µM. In addition, the “% of Nitrone Remaining at 30 min (Human)” value in data set [2] is on record as 0%. The solubility in data set [3] (read-out: Solubility @ pH 7.4) came out at 413 µM; in data set [3] (setting [5]) it was 143 µg/mL.
`CN1CCN(S(=O)(=O)c2ccccc2/C=[N+](\[O-])Cc2ccccc2)CC1` [Compound 40, N-Benzyl-C-[2-(4-methyl-piperazine-1-sulfonyl)phenyl]nitrone]: the EC50 in data set [1] is more than 1000 µM. Also, the “% of Nitrone Remaining at 30 min (Human)” value in data set [2] is recorded as 27.9%. Also, the solubility in data set [3] (read-out: Solubility @ pH 7.4) is more than 2280 µM; in data set [3] (setting [5]), more than 851 µg/mL.
As for `O=S(=O)(c1ccccc1/C=[N+](\[O-])C1CCCCC1)N1CCOCC1` [Compound 36], the EC50 in data set [1] is more than 1000 µM. Besides, the “% of Nitrone Remaining at 30 min (Human)” value in data set [2] was determined as 24.2%. Further, the solubility was 584 µM in data set [3] (read-out: Solubility @ pH 7.4) and 206 µg/mL in data set [3] (setting [5]).
For the molecule `O=S(=O)(c1ccccc1/C=[N+](\[O-])Cc1ccccc1)N1CCCc2ccccc21` [Compound 46, N-Benzyl-C-[2-(3,4-dihydro-2H-quinoline-1-sulfonyl)phenyl]nitrone], the EC50 in data set [1] was more than 1000 µM. For the same molecule, the “% of Nitrone Remaining at 30 min (Human)” value in data set [2] is 0%. For the same molecule, the solubility in data set [3] (read-out: Solubility @ pH 7.4) was 5.26 µM; in data set [3] (setting [5]) it was 2.14 µg/mL.
As to `CN1CCN(S(=O)(=O)c2ccccc2/C=[N+](\[O-])C(C)(C)C)CC1` [Compound 38, N-tert-Butyl-C-[2-(4-methyl-piperazine-1-sulfonyl)phenyl]nitrone], the EC50 in data set [1] is more than 1000 µM. In data set [2], the “% of Nitrone Remaining at 30 min (Human)” value is 76.6%. The results for the solubility in data set [3] (read-out: Solubility @ pH 7.4) and in data set [3] (setting [5]) were more than 1860 µM and more than 632 µg/mL, respectively.
Consider `O=S(=O)(c1ccccc1/C=[N+](\[O-])C1CCCCC1)N1CCCc2ccccc21` [Compound 45, N-Cyclohexyl-C-[2-(3,4-dihydro-2H-quinoline-1-sulfonyl)phenyl]nitrone], for which, in data set [1], the EC50 was more than 1000 µM. Moreover, the “% of Nitrone Remaining at 30 min (Human)” value in data set [2] is given as 0%. Besides, the solubility in data set [3] (read-out: Solubility @ pH 7.4) was 3.5 µM; in data set [3] (setting [5]), 1.42 µg/mL.
In the case of `CC(C)(C)NS(=O)(=O)c1ccccc1/C=[N+](\[O-])C(C)(C)C` [Compound 48, N-tert-Butyl-C-(2-tert-butylsulfamoyl-phenyl)nitrone], the EC50 in data set [1] was more than 1000 µM. The “% of Nitrone Remaining at 30 min (Human)” value in data set [2] is given as 100%. In addition, in data set [4], the peak level (Cmax) was 0.862 µg/mL, the clearance is 1.97 L/h/kg, the Vd was found to be 1.39 L/kg and the Tmax is 15 min. Further, in data set [4], the bioavailability is 55.3% and the half-life is 29.4 min.
`CN(c1ccccc1)S(=O)(=O)c1ccc(/C=[N+](\[O-])C(C)(C)C)cc1` [Compound 54, N-tert-Butyl-C44-(methyl-phenyl-sulfamoyl)phenylInitrone]: the EC50 in data set [1] is more than 1000 µM. Besides, the “% of Nitrone Remaining at 30 min (Human)” value in data set [2] came to 62%. In addition, in data set [4], the highest level (Cmax) was 0.18 µg/mL, the clearance is 2.15 L/h/kg, the Vd stood at 3.21 L/kg and the Tmax was found to be 15 min. Also, in data set [4], the bioavailability came out at 13.2% and the half-life is 61.8 min.
With `CN1CCN(S(=O)(=O)c2ccccc2/C=[N+](\[O-])C2CCCCC2)CC1` [Compound 39, N-Cyclohexyl-C-[2-(4-methyl-piperazine-1-sulfonyl)phenyl]nitrone], the EC50 in data set [1] was more than 1000 µM. The “% of Nitrone Remaining at 30 min (Human)” value in data set [2] is recorded as 41.9%. In addition, the solubility in data set [3] (read-out: Solubility @ pH 7.4) is more than 2630 µM; in data set [3] (setting [5]) it was more than 962 µg/mL.
For `CC(C)(C)NS(=O)(=O)c1ccc(/C=[N+](\[O-])C2CCCCC2)cc1` [Compound 60, N-Cyclohexyl-C-[4-(tert-butylsulfamoyl)phenyl]nitrone], in data set [1], the EC50 was more than 1000 µM. For the same molecule, the “% of Nitrone Remaining at 30 min (Human)” value in data set [2] is on record as 100%. Further, in data set [4], the highest level (Cmax) was 0.00159 µg/mL, the clearance was 3.8 L/h/kg, the Vd turned out to be 2.84 L/kg and the Tmax was 8.4 min. Besides, in data set [4], the bioavailability stood at 0.4% and the half-life is 30.6 min.
